Test results reported in patent US20100197743A1, “Use of sulphur-containing heteroaromatic acid analogues” (Bayer CropScience AG, priority 2008, published 2010).

System: black Sigatoka fungus Mycosphaerella figiensis
Test: Field study of black Sigatoka control on Cavendish bananas (Stover method)
Type: in vivo, Mycosphaerella figiensis on Cavendish bananas
Design: key to YLI last determ. (youngest infected leaf): leaf number of youngest leaf showing Sigatoka symptoms; YLI AUDPC / SEV AUDPC: unit not given here
Conditions: for SEV last determ. (severity of the disease) / YLI last determ. (youngest infected leaf): foliar spray, eight applications at seven-day intervals, last determination Oct. 23, 2008; for SEV ABBOTT: % severity calculated as described by ABBOTT; for SEV AUDPC / YLI AUDPC: area under the disease progress curve over the complete study period
Text: If the banana disease caused by the black Sigatoka fungus Mycosphaerella figiensis is not controlled, the latter can destroy the banana leaves and greatly reduce the yield. To control Sigatoka, commercially available fungicides are used which are usually applied to banana plants by foliar application.
It was intended to determine whether isotianil is capable of controlling the black Sigatoka infection with reference to studies carried out on Cavendish bananas in Devao del Norte in the southern Philippines.
Compound I-2 as defined above was formulated as a suspension concentrate formulation (200 SC) with Banol mineral oil and water in a ratio of 0.5 l of compound I-2 (200 SC), 5 l of oil and 74 l of water. The emulsifier used was 0.05 l of Lutensol so as to maintain the oil/water mixture as a stable emulsion.
After the formulation procedure, the mixture was sprayed onto banana trees using engine-driven spray mist applicators which applied a total volume of 80 l/ha.
This was followed by eight applications at seven-day intervals between Aug. 28 and Oct. 16, 2008. The isotianil application rate was 50, 75 and 100 g of a.i./ha, respectively.
For comparison with the isotianil plots, one plot was left untreated, and a further plot was sprayed with Sico (difenconazole 250 SC), a commercially available fungicide which is used for controlling black Sigatoka. Sico was sprayed together with Banol oil and Lutensol at an application rate of 100 g of a.i./ha, as above.
Each plot consisted of two banana plants at the BBCH growth stage 1056-1100. Each treatment consisted of three replications.
After the application, the disease level on the banana leaves was determined according to several parameters which are defined by the “Stover method” (Stover, 1971 R. H. Stover, A proposed international scale for estimating intensity of banana leaf spot, Tropical Agriculture).
Youngest infected leaf (YLI): This parameter records which leaf of the plant was the youngest leaf to show initial symptoms of Sigatoka infection. This is important since this has a direct relationship with the degree of infection, since the youngest leaves are infected last. Under the test conditions, the plants produce approximately one new leaf per week.
The severity of the disease (SEV) describes the direct percentage of visual disease on the plant.
The youngest infected leaf and the severity of the disease were determined weekly after the first application. The data hereinbelow describe the results of the last determination measured at the end of the experiment, on Oct. 23, 2008. After the weekly determination, moreover, the data were compiled in the form of a graph, and the area under the disease progress curve (AUDPC) was calculated over the complete study period and is listed hereinbelow. Moreover, % severity was calculated as described by ABBOTT.

N#Cc1ccccc1NC(=O)c1snc(Cl)c1Cl [Compound I-2, isotianil]
SEV last determ. (severity of the disease) (50 g of a.i./ha): 5.3% | YLI last determ. (youngest infected leaf) (50 g of a.i./ha): 4 | SEV ABBOTT (50 g of a.i./ha): 72.4% | SEV AUDPC (50 g of a.i./ha): 314 | YLI AUDPC (50 g of a.i./ha): 223 | SEV last determ. (severity of the disease) (75 g of a.i./ha): 5% | YLI last determ. (youngest infected leaf) (75 g of a.i./ha): 4 | SEV ABBOTT (75 g of a.i./ha): 74% | SEV AUDPC (75 g of a.i./ha): 285 | YLI AUDPC (75 g of a.i./ha): 224 | SEV last determ. (severity of the disease) (100 g of a.i./ha): 5.3% | YLI last determ. (youngest infected leaf) (100 g of a.i./ha): 4 | SEV ABBOTT (100 g of a.i./ha): 72.6% | SEV AUDPC (100 g of a.i./ha): 313 | YLI AUDPC (100 g of a.i./ha): 119
